Assay results from patent US20250122504A1, “COMBINATIONS WITH MODULATORS OF PNPLA3 EXPRESSION” (AstraZeneca AB, priority 2021, published 2025).
{GalNAc3} = triantennary N-acetylgalactosamine conjugate

Legend:
[1] = Body weight change in Pnpla3^148M/M knock-in mice fed a NASH-inducing diet; type: in vivo, mouse; conditions: Pnpla3^148M/M mice, NASH diet 36 weeks, treatment last 14 weeks; ASO 5 mg/kg/week s.c.; Cotadutide 1 nmol/kg daily s.c.; FIG. 1A
Procedure: All animal experiments were performed with humane care and were approved by the Gothenburg Ethics Committee for Experimental Animals in Sweden. The holding facility has received full accreditation from the Association for Assessment and Accreditation of Laboratory Animal Care (AAALAC). The human PNPLA3 […] mutation was introduced into the mouse Pnpla3 gene by replacing the isoleucine codon with a methionine codon in amino acid position 148 of the mouse Pnpla3 gene using homologous recombination as described before (Lindén et al Mol Metab, 2019, DOI: 10.1016/j.molmet.2019.01.013). Heterozygous Pnpla3^148I/M mice were intercrossed to generate experimental homozygous Pnpla3^148M/M knock-in mice for the pharmacology study. […]
Male Pnpla3^148M/M mice (6-8 weeks of age) were fed a diet high in fat (40 kcal % fat (non-trans fat Primex Shortening), fructose (20 kcal %) and cholesterol (2%) (NASH diet; D16022301, Research Diets, New Brunswick, NJ) for 22 weeks. The mice were then assigned to study groups based on body weight, and fed the same NASH diet and dosed with either 1) control ASO+saline, 2) Pnpla3 ASO+saline, 3) control ASO+Cotadutide, or 4) Pnpla3 ASO+Cotadutide for 14 weeks. […] Body weights were recorded during the study. […]

mouse Pnpla3 mRNA = assay: Liver Pnpla3 mRNA by qPCR in Pnpla3^148M/M mice on NASH diet; type: in vivo; conditions: 14 weeks treatment, ASO 5 mg/kg/week s.c., FIG. 1B
Procedure: Male Pnpla3^148M/M mice (6-8 weeks of age) were fed a diet high in fat (40 kcal % fat (non-trans fat Primex Shortening), fructose (20 kcal %) and cholesterol (2%) (NASH diet; D16022301, Research Diets, New Brunswick, NJ) for 22 weeks. The mice were then assigned to study groups based on body weight, and fed the same NASH diet and dosed with either 1) control ASO+saline, 2) Pnpla3 ASO+saline, 3) control ASO+Cotadutide, or 4) Pnpla3 ASO+Cotadutide for 14 weeks. The ASOs were dosed at 5 mg/kg/week administered by two subcutaneous injections per week with saline as vehicle. Cotadutide was dosed at 1 nmol/kg administered by daily subcutaneous injections with saline as vehicle. […] Body weights were recorded during the study. At sacrifice, unfasted mice were euthanized with isoflurane (Forene, Abbot Scandinavia AB, Sweden), blood was collected and plasma isolated, livers were collected, and pieces (same position in the left lateral lobe for all mice) were fixed with 4% formaldehyde in PBS for histology or snap-frozen in liquid N2 and stored at −80° C.
RNA was isolated from snap-frozen liver tissue using the RNeasy Mini Kit (Qiagen, Germany). The cDNA templates were generated by reverse transcription with a cDNA kit (ThermoFisher Scientific, Stockholm, Sweden) and used for real-time quantitative PCR with the QuantStudio 7 Flex instrument (Applied Biosystems, Stockholm, Sweden). […]

[2] = test system: Pnpla3^148M/M mice fed a NASH-inducing diet; assay: NAFLD activity score (NAS) and inflammation score from liver histology; type: in vivo, mouse; conditions: 14 weeks treatment, FIG. 4
Procedure: (§1) Male Pnpla3^148M/M mice (6-8 weeks of age) were fed a diet high in fat (40 kcal % fat (non-trans fat Primex Shortening), fructose (20 kcal %) and cholesterol (2%) (NASH diet; D16022301, Research Diets, New Brunswick, NJ) for 22 weeks. The mice were then assigned to study groups based on body weight, and fed the same NASH diet and dosed with either 1) control ASO+saline, 2) Pnpla3 ASO+saline, 3) control ASO+Cotadutide, or 4) Pnpla3 ASO+Cotadutide for 14 weeks. The ASOs were dosed at 5 mg/kg/week administered by two subcutaneous injections per week with saline as vehicle. Cotadutide was dosed at 1 nmol/kg administered by daily subcutaneous injections with saline as vehicle. […] Body weights were recorded during the study. […]
The NAFLD activity score (NAS) was determined according to the method reported by Kleiner et al (Kleiner et al Hepatology, 2005, DOI: 10.1002/hep.20701). […]
Differences between treatment groups were examined using 1-way ANOVA followed by Tukey's post-hoc tests (GraphPad Prism v.8.0.1., GraphPad Software, CA). Differences between treatment groups for the NAFLD activity score (NAS) derived from liver histology were analyzed by ordinal regression analyses followed by correction of family-wise error rate using the Šidák method. […]

[3] = test system: Pnpla3^148M/M mice fed a NASH-inducing diet; assay: Liver fibrosis as liver collagen 1A1 content (immunohistochemistry); type: in vivo, mouse; conditions: 14 weeks treatment, compared to control ASO, FIG. 5
Procedure: as §1
Four μm thick formaldehyde-fixed, paraffin-embedded mouse liver sections (one lover section per mouse) were routinely stained with hematoxylin-eosin (HE). […] Slides were scanned into Panoramic Scan II (3Dhistech, Hungary), and digital images were analyzed using the image analysis program Visiopharm (version 2020.03.0.7300, Visiopharm, Hørsholm, Denmark) by detecting stained area per total section area for Galectin-3 or Collagen 1A1.

Row | Molecule | body weight-gain during the treatment period compared to control ASO treated animals [1] | reduction of liver Pnpla3 mRNA levels (mouse Pnpla3 mRNA) [%] | NAFLD activity score (NAS) compared to control ASO treated animals [2] | liver fibrosis measured as liver collagen 1A1 content [3]
1 | Pnpla3 ASO: mouse cEt-modified 16-mer ASO targeting mouse Pnpla3 gene (5′-TATTTTTGGTGTATCC-3′, SEQ ID NO: 37), 5′-conjugated with triantennary GalNAc3 (5' {GalNAc3}, sugars by position and backbone not given here; cEt-modified) | but not Pnpla3 ASO treatment reduced body weight-gain | ≥ 97 | reduced the NAS | tended to reduce liver fibrosis
2 | CCCCCCCCCCCCCCCC(=O)N[C@@H](CCC(=O)NCCCC[C@H](NC(=O)[C@H](CC(=O)O)NC(=O)[C@H](CO)NC(=O)[C@@H](NC(=O)[C@H](Cc1ccccc1)NC(=O)[C@@H](NC(=O)CNC(=O)[C@H](CCC(N)=O)NC(=O)[C@H](CO)NC(=O)[C@@H](N)Cc1c[nH]cn1)[C@@H](C)O)[C@@H](C)O)C(=O)N[C@@H](CO)C(=O)N[C@@H](CCC(=O)O)C(=O)N[C@@H](Cc1ccc(O)cc1)C(=O)N[C@@H](CC(C)C)C(=O)N[C@@H](CC(=O)O)C(=O)N[C@@H](CO)C(=O)N[C@@H](CCC(=O)O)C(=O)N[C@@H](CCCNC(=N)N)C(=O)N[C@@H](C)C(=O)N[C@@H](CCCNC(=N)N)C(=O)N[C@@H](CC(=O)O)C(=O)N[C@@H](Cc1ccccc1)C(=O)N[C@H](C(=O)N[C@@H](C)C(=O)N[C@@H](Cc1c[nH]c2ccccc12)C(=O)N[C@@H](CC(C)C)C(=O)N[C@@H](CCC(=O)O)C(=O)N[C@@H](C)C(=O)NCC(=O)NCC(=O)O)C(C)C)C(=O)O [Cotadutide] | reduced body weight-gain | – | reduced the NAS | tended to reduce the liver collagen 1A1 content
